Test system: CD8+ T cells cocultured with BMDCs
Assay: BMDC antigen cross-presentation to ovalbumin-specific CD8+ T cells (OT I)
Format: cell-based, C57BL/6 mouse
Conditions: BMDCs pretreated 10 μM + ovalbumin 50 μg/mL 18 h, coculture 72 h; OVA-treated cells 23.3%
Protocol: For this study, we narrowed down the selection of suitable desmuramylpeptides even further. In order to assess the adjuvant potential of selected desmuramylpeptides with regard to their effect on DC-mediated activation of CD4^+ and CD8^+ T cells, we conducted an ex vivo antigen-presentation assay utilizing C57BL/6 mouse bone marrow-derived DCs (BMDCs). Upon stimulation with desmuramylpeptides at 10 μM, in conjunction with ovalbumin soluble protein (50 μg/mL), BMDCs were cocultured with carboxyfluorescein succinimidyl ester (CFSE)-labeled naïve ovalbumin-specific CD4^+ or CD8^+ T cells, which were isolated from splenocytes of OT II and OT I transgenic mice, respectively. […] Additionally, we investigated how the priming of T cells elicited by the tested compounds impacted the cytokine profiles secreted in BMDC/T-cell cocultures.
CD4^+ and CD8^+ T cells were isolated from splenocytes of OT II and OT I transgenic mice using CD4^+ and CD8^+ T cell isolation kits (Miltenyi Biotec, Germany) following the manufacturer’s instructions. The purified T cells were labeled with CFSE (Invitrogen, Carlsbad, CA, USA) and subsequently washed. Next, 5 × 10^4 T cells were combined with 1 × 10^4 BMDCs/well (pretreated with desmuramylpeptides at 10 μM and 50 μg/mL ovalbumin [Invivogen, San Diego, CA, USA] for 18 h and then washed). Following a 72-h incubation period at 37 °C with 5% CO2, supernatants were harvested and stored at −80 °C for cytokine analysis. The cells were then stained with Fixable viability dye eFluor 780 (eBioscience, Thermo Fisher Scientific, MA, USA), anti-Thy1.2-PE-Cy7 antibodies (Biolegend, San Diego, CA, USA), anti-CD8-eFluor450 antibodies (eBioscience), anti-CD4-eFluor450 antibodies (eBioscience), and anti-CD25-APC antibodies (Biolegend) before analysis using a Beckman Coulter Cytoflex S flow cytometer (CA, USA) and FlowJo software (Tree Star, Inc., Ashland, OR, USA). Live Thy1.2+/CD4+ and Thy1.2+/CD8+ cells were assessed for CFSE dilution and CD25 expression. […] Statistical significance was determined using paired t tests.

Structure (SMILES) | fraction of activated and proliferating CD8+ T-cells (CD25+, CFSE low) [%]
CCCC(=O)Oc1ccc(/C=C/C(=O)NCC(=O)N[C@H](C(=O)N[C@H](CCC(=O)OCC)C(=O)OCC)C(C)C)cc1OC [Compound 3, Diethyl ((E)-3-(4-(Butyryloxy)-3-methoxyphenyl)acryloyl)glycyl-L-valyl-D-glutamate] | 29.3
CC/C=C\C/C=C\C/C=C\C/C=C\C/C=C\CCCC(=O)Oc1ccc(/C=C/C(=O)NCC(=O)N[C@H](C(=O)N[C@H](CCC(=O)OCC)C(=O)OCC)C(C)C)cc1OC [Compound 23, Diethyl ((E)-3-(4-(((5Z,8Z,11Z,14Z,17Z)-Icosa-5,8,11,14,17-pentaenoyl)oxy)-3-methoxyphenyl)acryloyl)glycyl-L-valyl-D-glutamate] | 34.1

From article PMC11472310, “Distinctive Immune Signatures Driven by Structural Alterations in Desmuramylpeptide NOD2 Agonists” (Journal of Medicinal Chemistry, 2024)
